Laboratory results from patent publication US20140179664A1, “Heterocyclyl Pyrimidine Analogues As JAK Inhibitors” (Cellzome Limited, priority 2011, published 2014).

What was measured:
Assay type in all cases: binding
TYK2 = biological target: T1, TYK2 (Homo sapiens, UniProt P29597); test: Kinobeads assay, TYK2; details: mixed Molt4/Ramos lysate, read-out: Inhibition values (IC50) TYK2
T1 construct: endogenous in cells; host or cells: Molt4 (ATCC CRL-1582) and Ramos (ATCC CRL-1596), mixed lysate 1:2
T1 sequence (P29597 whole entry): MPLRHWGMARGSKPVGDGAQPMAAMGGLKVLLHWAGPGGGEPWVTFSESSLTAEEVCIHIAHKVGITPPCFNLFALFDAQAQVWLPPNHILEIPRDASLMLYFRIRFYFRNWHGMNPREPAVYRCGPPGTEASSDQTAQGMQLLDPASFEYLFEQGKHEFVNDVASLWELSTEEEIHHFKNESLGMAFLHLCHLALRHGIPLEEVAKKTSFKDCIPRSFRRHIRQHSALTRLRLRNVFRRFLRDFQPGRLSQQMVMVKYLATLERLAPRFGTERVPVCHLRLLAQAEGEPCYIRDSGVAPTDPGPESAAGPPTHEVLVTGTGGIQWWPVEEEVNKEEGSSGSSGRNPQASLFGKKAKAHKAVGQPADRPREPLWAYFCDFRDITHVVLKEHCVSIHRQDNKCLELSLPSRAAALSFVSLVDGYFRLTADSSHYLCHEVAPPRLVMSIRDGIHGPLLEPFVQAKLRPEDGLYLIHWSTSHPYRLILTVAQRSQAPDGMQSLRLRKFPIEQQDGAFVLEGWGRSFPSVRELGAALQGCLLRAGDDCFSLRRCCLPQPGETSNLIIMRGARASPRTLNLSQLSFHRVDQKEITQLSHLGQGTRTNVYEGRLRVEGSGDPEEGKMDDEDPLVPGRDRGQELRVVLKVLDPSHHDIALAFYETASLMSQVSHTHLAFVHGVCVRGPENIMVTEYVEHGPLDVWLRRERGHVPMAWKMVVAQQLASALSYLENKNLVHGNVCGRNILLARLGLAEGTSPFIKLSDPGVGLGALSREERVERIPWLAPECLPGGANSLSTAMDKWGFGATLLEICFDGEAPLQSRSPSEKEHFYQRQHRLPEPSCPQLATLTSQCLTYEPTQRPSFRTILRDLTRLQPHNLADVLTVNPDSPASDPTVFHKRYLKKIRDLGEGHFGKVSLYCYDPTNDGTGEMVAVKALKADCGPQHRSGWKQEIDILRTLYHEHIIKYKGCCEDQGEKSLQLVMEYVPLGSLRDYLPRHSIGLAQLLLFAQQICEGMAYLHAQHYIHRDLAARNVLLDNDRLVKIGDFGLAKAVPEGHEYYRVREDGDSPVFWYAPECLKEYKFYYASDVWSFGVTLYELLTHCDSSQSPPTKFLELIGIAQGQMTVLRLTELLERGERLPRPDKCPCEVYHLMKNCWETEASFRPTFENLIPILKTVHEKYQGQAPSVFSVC
Procedure, shortened: (§1)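 Mixed Molt4/Ramos lysate (1:2, 10 mg/mL protein) was incubated 3 h in the cold with the immobilized aminopyrido-pyrimidine affinity matrix and compound, 9-step 1:3 dilutions. Bead-bound kinases were eluted and quantified by antibody dot blot with infrared detection. IC50s are from dose-response curves.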

JAK3 = biological target: T2, JAK3 (Homo sapiens, UniProt P52333); test: Kinobeads assay, JAK3; details: mixed Molt4/Ramos lysate, read-out: Inhibition values (IC50) JAK3
T2 construct: endogenous in cells; host or cells: Molt4 (ATCC CRL-1582) and Ramos (ATCC CRL-1596), mixed lysate 1:2
T2 sequence (P52333 1-1124): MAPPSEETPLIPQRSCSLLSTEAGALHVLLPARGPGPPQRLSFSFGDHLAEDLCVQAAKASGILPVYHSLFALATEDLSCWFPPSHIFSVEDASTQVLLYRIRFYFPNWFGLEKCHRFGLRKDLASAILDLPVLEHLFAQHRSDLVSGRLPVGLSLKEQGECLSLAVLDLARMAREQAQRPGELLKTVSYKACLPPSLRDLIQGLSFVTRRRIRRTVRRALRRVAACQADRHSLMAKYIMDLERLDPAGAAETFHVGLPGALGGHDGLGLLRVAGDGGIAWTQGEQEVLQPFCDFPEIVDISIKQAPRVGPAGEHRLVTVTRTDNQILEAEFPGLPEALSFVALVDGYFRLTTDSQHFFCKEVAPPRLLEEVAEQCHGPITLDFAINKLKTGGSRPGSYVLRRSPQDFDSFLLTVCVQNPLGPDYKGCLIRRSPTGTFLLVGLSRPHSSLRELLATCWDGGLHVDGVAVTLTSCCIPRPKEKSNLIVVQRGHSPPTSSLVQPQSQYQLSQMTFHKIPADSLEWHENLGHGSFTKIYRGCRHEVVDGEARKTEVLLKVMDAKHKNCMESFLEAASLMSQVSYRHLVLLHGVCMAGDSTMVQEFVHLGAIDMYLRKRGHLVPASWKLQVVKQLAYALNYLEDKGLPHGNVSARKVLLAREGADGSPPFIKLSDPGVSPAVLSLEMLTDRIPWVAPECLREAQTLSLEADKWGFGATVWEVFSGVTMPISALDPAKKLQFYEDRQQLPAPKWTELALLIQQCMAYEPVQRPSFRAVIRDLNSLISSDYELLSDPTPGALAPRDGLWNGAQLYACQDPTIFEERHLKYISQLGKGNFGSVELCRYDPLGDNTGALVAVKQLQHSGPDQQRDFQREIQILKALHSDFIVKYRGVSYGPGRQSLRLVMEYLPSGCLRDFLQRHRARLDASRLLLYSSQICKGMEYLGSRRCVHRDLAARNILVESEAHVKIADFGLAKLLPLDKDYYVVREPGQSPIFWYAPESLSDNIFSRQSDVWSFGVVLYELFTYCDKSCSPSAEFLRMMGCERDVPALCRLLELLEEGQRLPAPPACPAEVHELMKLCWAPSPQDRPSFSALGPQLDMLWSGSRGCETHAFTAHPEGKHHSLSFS
Procedure, shortened: as §1

JAK2 = biological target: T3, JAK2 (Homo sapiens, UniProt O60674); test: Kinobeads assay, JAK2; details: mixed Molt4/Ramos lysate, read-out: Inhibition values (IC50) JAK2
T3 construct: endogenous in cells; host or cells: Molt4 (ATCC CRL-1582) and Ramos (ATCC CRL-1596), mixed lysate 1:2
T3 sequence (O60674 whole entry): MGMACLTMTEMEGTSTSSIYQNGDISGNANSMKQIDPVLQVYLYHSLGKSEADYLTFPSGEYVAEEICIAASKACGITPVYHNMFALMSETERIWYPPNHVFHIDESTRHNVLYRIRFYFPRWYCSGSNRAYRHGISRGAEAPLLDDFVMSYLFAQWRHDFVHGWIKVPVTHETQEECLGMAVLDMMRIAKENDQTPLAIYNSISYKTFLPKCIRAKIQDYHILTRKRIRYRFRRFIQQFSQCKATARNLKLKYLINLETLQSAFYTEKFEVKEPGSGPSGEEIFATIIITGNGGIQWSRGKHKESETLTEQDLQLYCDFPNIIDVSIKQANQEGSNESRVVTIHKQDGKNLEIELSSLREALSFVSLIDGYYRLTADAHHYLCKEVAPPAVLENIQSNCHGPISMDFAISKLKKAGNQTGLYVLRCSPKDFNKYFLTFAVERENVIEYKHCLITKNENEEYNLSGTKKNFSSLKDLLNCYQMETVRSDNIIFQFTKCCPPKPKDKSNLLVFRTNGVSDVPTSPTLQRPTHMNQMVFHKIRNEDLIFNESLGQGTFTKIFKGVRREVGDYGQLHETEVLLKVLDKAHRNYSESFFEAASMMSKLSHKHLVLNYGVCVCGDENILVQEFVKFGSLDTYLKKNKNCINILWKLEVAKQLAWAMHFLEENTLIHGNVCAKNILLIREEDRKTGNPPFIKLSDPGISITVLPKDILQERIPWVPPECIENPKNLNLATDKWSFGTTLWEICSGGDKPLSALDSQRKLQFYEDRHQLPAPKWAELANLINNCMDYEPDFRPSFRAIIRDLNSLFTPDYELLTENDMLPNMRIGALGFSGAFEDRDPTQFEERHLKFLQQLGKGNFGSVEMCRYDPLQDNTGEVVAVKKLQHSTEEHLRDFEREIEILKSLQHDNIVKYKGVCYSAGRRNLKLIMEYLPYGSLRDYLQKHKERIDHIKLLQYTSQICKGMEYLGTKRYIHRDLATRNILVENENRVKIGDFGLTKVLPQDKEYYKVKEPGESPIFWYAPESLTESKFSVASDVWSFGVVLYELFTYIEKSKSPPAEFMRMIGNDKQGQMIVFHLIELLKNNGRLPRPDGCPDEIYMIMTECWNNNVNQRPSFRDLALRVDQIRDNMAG
Procedure, shortened: as §1

SMILES	IC50 (TYK2)	IC50 (JAK3)	IC50 (JAK2)
CC(C)(O)Cn1cc(Nc2ncc(Cl)c(NC(CO)c3c(F)cccc3F)n2)cn1 (stereo not drawn) [Compound 62]	1000 to 10000 nM	< 100 nM	≥ 10000 nM
Cn1cc(Nc2ncc(Cl)c(N[C@H](C(=O)NCCO)c3ccccc3)n2)cn1 [Compound 46]	1000 to 10000 nM	< 100 nM	1000 to 10000 nM
OCCn1ccc(Nc2ncc(Cl)c(NC(CO)c3ccccc3F)n2)n1 (stereo not drawn) [Compound 50]	≥ 10000 nM	100 to 1000 nM	≥ 10000 nM
CN(C)C(=O)[C@@H](Nc1nc(Nc2cnn(CCO)c2)ncc1Cl)c1ccccc1 [Compound 26]	1000 to 10000 nM	< 100 nM	1000 to 10000 nM
CCNC(=O)[C@@H](Nc1nc(Nc2cnn(CCO)c2)ncc1Cl)c1ccccc1 [Compound 27]	1000 to 10000 nM	< 100 nM	≥ 10000 nM
Cn1cc(Nc2ncc(Cl)c(NC(CO)Cc3ccccc3)n2)cn1 (stereo not drawn) [Compound 14]	1000 to 10000 nM	100 to 1000 nM	1000 to 10000 nM
OCCn1ccc(Nc2ncc(Cl)c(NC(CO)c3cccc(F)c3)n2)n1 (stereo not drawn) [Compound 41]	≥ 10000 nM	100 to 1000 nM	≥ 10000 nM
Cn1cc(Nc2ncc(Cl)c(NC(CO)c3cccc(F)c3)n2)cn1 (stereo not drawn) [Compound 40]	1000 to 10000 nM	< 100 nM	1000 to 10000 nM
Cc1cnc(Nc2cnn(CCO)c2)nc1NC(CO)c1ccccc1 (stereo not drawn) [Compound 12]	1000 to 10000 nM	100 to 1000 nM	≥ 10000 nM
CC(C)(O)Cn1cc(Nc2ncc(Cl)c(NC(CO)c3cccc(F)c3)n2)cn1 (stereo not drawn) [Compound 61]	1000 to 10000 nM	< 100 nM	1000 to 10000 nM
CCOC(=O)Cn1cc(Nc2ncc(Cl)c(N[C@H](CO)c3ccccc3)n2)cn1 [Compound 22]	100 to 1000 nM	< 100 nM	1000 to 10000 nM
OCCn1cc(Nc2ncc(Cl)c(NC(CO)Cc3ccccc3)n2)cn1 (stereo not drawn) [Compound 19]	1000 to 10000 nM	< 100 nM	1000 to 10000 nM
COc1cccc([C@@H](CO)Nc2nc(Nc3cnn(C)c3)ncc2Cl)c1 [Compound 82]	1000 to 10000 nM	< 100 nM	≥ 10000 nM
CNC(=O)Cn1cc(Nc2ncc(Cl)c(NC(CO)c3cccc(F)c3)n2)cn1 (stereo not drawn) [Compound 32]	1000 to 10000 nM	< 100 nM	1000 to 10000 nM
Cc1cnc(Nc2cnn(CC(F)F)c2)nc1N[C@H](CO)c1cc(F)cc(F)c1 [Compound 167]	1000 to 10000 nM	100 to 1000 nM	1000 to 10000 nM
OCCn1cc(Nc2ncc(Cl)c(N[C@@H](CO)c3ccccc3)n2)cn1 [Compound 63]	1000 to 10000 nM	1000 to 10000 nM	≥ 10000 nM
COc1cccc([C@@H](CO)Nc2nc(Nc3cnn(CCO)c3)ncc2Cl)c1 [Compound 83]	1000 to 10000 nM	< 100 nM	1000 to 10000 nM
COCCNC(=O)[C@@H](Nc1nc(Nc2cnn(C)c2)ncc1Cl)c1ccccc1 [Compound 29]	1000 to 10000 nM	< 100 nM	1000 to 10000 nM
CN(C)C(=O)Cn1cc(Nc2ncc(Cl)c(N[C@H](CO)c3ccccc3)n2)cn1 [Compound 30]	100 to 1000 nM	< 100 nM	1000 to 10000 nM
CCNC(=O)[C@@H](Nc1nc(Nc2cnn(C)c2)ncc1Cl)c1ccccc1 [Compound 28]	1000 to 10000 nM	< 100 nM	≥ 10000 nM
OCCn1cc(Nc2ncc(Cl)c(NC(CO)c3cccc(F)c3)n2)cn1 (stereo not drawn) [Compound 39]	100 to 1000 nM	< 100 nM	100 to 1000 nM
Cc1cnc(Nc2cnn(CC(F)F)c2)nc1NC(CO)c1c(F)cccc1F (stereo not drawn) [Compound 168]	1000 to 10000 nM	100 to 1000 nM	≥ 10000 nM
CNC(=O)Cn1cc(Nc2ncc(Cl)c(N[C@H](CCO)c3ccccc3)n2)cn1 [Compound 66]	1000 to 10000 nM	100 to 1000 nM	1000 to 10000 nM
CC(C)(C(N)=O)n1cc(Nc2ncc(Cl)c(N[C@H](CO)c3ccccc3F)n2)cn1 [Compound 73]	1000 to 10000 nM	< 100 nM	1000 to 10000 nM

SMILES	IC50 (TYK2)	IC50 (JAK3)	IC50 (JAK2)
OCC[C@@H](Nc1nc(Nc2cnn(CCO)c2)ncc1Cl)c1ccccc1 [Compound 65]	1000 to 10000 nM	100 to 1000 nM	1000 to 10000 nM
O=C(O)C(Nc1nc(Nc2cnn(CCO)c2)ncc1Cl)c1ccccc1 (stereo not drawn) [Compound 17]	≥ 10000 nM	100 to 1000 nM	≥ 10000 nM
CNC(=O)Cn1cc(Nc2ncc(Cl)c(NC(CO)c3c(F)cccc3F)n2)cn1 (stereo not drawn) [Compound 31]	1000 to 10000 nM	< 100 nM	1000 to 10000 nM
COc1ccccc1[C@@H](CO)Nc1nc(Nc2cnn(CCO)c2)ncc1Cl [Compound 76]	100 to 1000 nM	< 100 nM	1000 to 10000 nM
Cn1cc(Nc2ncc(Cl)c(NC(CO)c3cccc(N4CC5(COC5)C4)c3)n2)cn1 (stereo not drawn) [Compound 53]	≥ 10000 nM	100 to 1000 nM	≥ 10000 nM
O=C(NCCO)[C@@H](Nc1nc(Nc2cnn(CCO)c2)ncc1Cl)c1ccccc1 [Compound 47]	1000 to 10000 nM	< 100 nM	1000 to 10000 nM
CNC(=O)Cn1cc(Nc2ncc(Cl)c(NC(CO)c3ccccc3F)n2)cn1 (stereo not drawn) [Compound 33]	1000 to 10000 nM	< 100 nM	1000 to 10000 nM
COc1ccccc1[C@@H](CO)Nc1nc(Nc2cnn(C)c2)ncc1Cl [Compound 74]	1000 to 10000 nM	< 100 nM	1000 to 10000 nM
Cn1cc(Nc2ncc(F)c(NC(CO)c3ccccc3)n2)cn1 (stereo not drawn) [Compound 2]	1000 to 10000 nM	100 to 1000 nM	≥ 10000 nM
CC(C)OC(=O)Cn1cc(Nc2ncc(Cl)c(N[C@H](CO)c3ccccc3)n2)cn1 [Compound 21]	100 to 1000 nM	< 100 nM	1000 to 10000 nM
OCCn1cc(Nc2ncc(Cl)c(NC(CO)c3ccccc3F)n2)cn1 (stereo not drawn) [Compound 36]	100 to 1000 nM	< 100 nM	1000 to 10000 nM
Cn1cc(Nc2ncc(Cl)c(NC(CO)c3ccc(F)cc3)n2)cn1 (stereo not drawn) [Compound 71]	1000 to 10000 nM	100 to 1000 nM	≥ 10000 nM
OC[C@@H](Nc1nc(Nc2cn[nH]c2)ncc1Cl)c1ccccc1F [Compound 79]	1000 to 10000 nM	< 100 nM	1000 to 10000 nM
CN(CC#N)C(=O)Cn1cc(Nc2ncc(Cl)c(N[C@H](CO)c3ccccc3)n2)cn1 [Compound 70]	100 to 1000 nM	< 100 nM	1000 to 10000 nM
OCCn1cc(Nc2ncc(Cl)c(N[C@H](CO)c3ccccn3)n2)cn1 [Compound 80]	100 to 1000 nM	< 100 nM	1000 to 10000 nM
O=C(Cn1cc(Nc2ncc(Cl)c(N[C@H](CO)c3ccccc3)n2)cn1)NC1CC1 [Compound 68]	100 to 1000 nM	< 100 nM	1000 to 10000 nM
CNC(=O)Cn1cc(Nc2ncc(Cl)c(N[C@H](CO)c3ccccc3)n2)cn1 [Compound 23, (S)-2-(4-((5-chloro-4-((2-hydroxy-1-phenylethyl)amino)pyrimidin-2-yl)amino)-1H-pyrazol-1-yl)-N-methylacetamide]	1000 to 10000 nM	< 100 nM	1000 to 10000 nM
Cc1cnc(Nc2cnn(CC(=O)N3CCOCC3)c2)nc1NC(CO)c1c(F)cccc1F (stereo not drawn) [Compound 169]	100 to 1000 nM	< 100 nM	1000 to 10000 nM
COC[C@@H](Nc1nc(Nc2cnn(C)c2)ncc1Cl)c1ccccc1 [Compound 55]	≥ 10000 nM	100 to 1000 nM	≥ 10000 nM
CC(O)Cn1cc(Nc2ncc(Cl)c(NC(CO)c3cccc(F)c3)n2)cn1 (stereo not drawn) [Compound 38]	1000 to 10000 nM	< 100 nM	1000 to 10000 nM
Cn1cc(Nc2ncc(Cl)c(NC(CO)c3cccc(-c4cnn(C)c4)c3)n2)cn1 (stereo not drawn) [Compound 69]	≥ 10000 nM	100 to 1000 nM	≥ 10000 nM
Cn1cc(Nc2ncc(Cl)c(N[C@H](C(=O)N3CCCC3)c3ccccc3)n2)cn1 [Compound 34]	≥ 10000 nM	100 to 1000 nM	1000 to 10000 nM
Cn1cc(Nc2ncc(Cl)c(N[C@H](CO)c3ccccc3F)n2)cn1 [Compound 58]	1000 to 10000 nM	< 100 nM	1000 to 10000 nM
